Literature values in patent US7956090B2, “Composition and method for increasing the anabolic state of muscle cells” (priority 2007, dated 2011).

Key:
[1] = about 1.5 g daily after intense exercise for 42 days
[2] = condensation and cyclization upon dissolution in water

| Compound | delayed onset muscle soreness [1] | total lean soft tissue mass [1] | stability in aqueous solution [2] |
| --- | --- | --- | --- |
| CC(C)CC(O)C(=O)O (stereo not drawn) [HICA, 2-hydroxy-4-methylvaleric acid] | little to no delayed onset muscle soreness | statistically significant increase | – |
| CC(=O)C(=O)O [pyruvate, pyruvic acid] | – | – | poor stability |
